The source of these data is the CATMoS acute toxicity set (Mansouri et al. 2021).

Series [1] can be described thus: Nontoxic (NT; LD50>2,000mg/kg vs. all others). Particulars: rat; in vivo; po. The source says:
(§1) […]The data set underlying the modeling effort for this project was initially compiled by NICEATM and U.S. EPA’s CCTE. Briefly, LD50 data were collected from rat acute oral systemic toxicity tests, including limit tests, ranges/confidence intervals, and discrete LD50 values. The full data set included 21,200 LD50 entries for 15,688 substances. […] Data were reviewed to ensure that LD50 values with obvious errors in the extracted data such as unit conversion errors (e.g., comma and decimal separator misplacements) were either fixed or removed. After this review, 16,209 LD50 values remained. Many of the chemicals represented had multiple LD50 entries, requiring that a single representative value per Chemical Abstracts Service Registry Number (CASRN) identifier be defined to facilitate modeling efforts. Based on ATWG feedback and to define the representative LD50 as a protective value while accounting for the distribution across multiple LD50s, the median of the lowest quartile was computed using only discrete LD50 values (omitting limit test data and range and confidence interval data). A detailed summary of the data compilation is available online on the NICEATM webpage dedicated to the collaborative modeling project (NTP 2020).
(§2) […][…] For categorical designations, limit test and range/confidence interval LD50 data were integrated wherever possible. As such, the number of chemicals with end point values/calls varies across the modeling end points (Table 3) based on whether chemicals had representative LD50 values and/or other data. If a chemical had both, the representative value was used to determine categorical calls rather than limit test data. Some data were useable only for certain end points and categories depending on the thresholds. For example, ranges that spanned multiple hazard categories were considered only for the binary (very toxic/nontoxic) end points and omitted from rendering a determination for hazard category assignment.
(§3) […]The final data set comprising 11,992 chemicals was split into training and evaluation sets […], respectively. This process was performed semirandomly by ordering chemicals based on the five end points (categorical and continuous LD50 values) and partitioning every fourth record into the evaluation set accordingly. This approach was taken to ensure an equivalent distribution of the LD50 values and the different hazard categories between the training and the evaluation sets without supervised sampling of the chemicals based on structures (Figure 1A). The sources of the chemical structures were also kept equivalent between the two sets, with chemical structures obtained from DSSTox, being the highest quality, representing over 75% of each set (Figure 1B).

Series [2] in a line: GHS categories as the set defines them, by LD50: 1 up to 5, 2 up to 50, 3 up to 300, 4 up to 2000, 5 above 2000 mg/kg. Particulars: rat; in vivo; po.
The nature of series [3]: rat acute oral toxicity. The settings on record: in vivo.
Series [4] is described as follows: Very toxic (VT; LD50≤50mg/kg vs. all others). Particulars: rat; in vivo; po.
Description: as §1, §2, §3

Series [5] is described as follows: EPA categories. The settings on record: rat; in vivo; po.
Description: as §1, §2, §3

On to `Cc1ccc(C(C)(C)C)c(O)c1`, for which the nontoxic entry in series [1] is on record as “FALSE (not_nontoxic)”.

In series [2], `C=CN1CCCC1=O` yielded a GHS category of 5. Also, in series [3], the LD50 was found to be 1020 mg/kg.

With `COc1c(C)cnc(CCl)c1C`, in series [1], the nontoxic result is reported as “FALSE (not_nontoxic)”.

For the compound `CCOC(=O)C(C#N)=CN`, the nontoxic result in series [1] is recorded as “FALSE (not_nontoxic)”.

On to `CN(C)CCOCCOC(=O)NCC1(C)CC(NC(=O)OCCOCCN(C)C)CC(C)(C)C1` (centres undefined), for which the nontoxic result in series [1] was “FALSE (not_nontoxic)”.

In the case of `CO[Si](C)(CCCCl)OC`, the nontoxic result in series [1] is reported as “FALSE (not_nontoxic)”.

As to `CNC1=C(c2cccc(C(F)(F)F)c2)C(=O)C(c2ccccc2)O1` (centres undefined), in series [4], the very_toxic entry was “FALSE (not_very_toxic)”.

`CC1OC(=O)C(C)OC1=O` (centres undefined) showed a GHS category in series [2] of 5. In addition, the LD50 in series [3] turned out to be 3540 mg/kg.

In turn, `Cc1cccc(S(=O)(=O)O)c1C` showed an EPA category in series [5] of 3.

In series [2], `OCC(O)CO` displayed a GHS category of 5. The same compound returned a median lethal dose (LD50) in series [3] of 9080 mg/kg.

Take `CCC[Si](Cl)(Cl)Cl`: the nontoxic result in series [1] was “FALSE (not_nontoxic)”.

`CC12CC(N3CCOCC3)C(O)CC1CCC1C2CCC2(C)C(O)C(N3CCCC3)CC12` (centres undefined): the nontoxic entry in series [1] was “FALSE (not_nontoxic)”.

On to `CC1(C(=O)Cl)CCCCC1`, for which, in series [1], the nontoxic result was “FALSE (not_nontoxic)”.

In turn, `Nc1ccc(S(=O)(=O)O)cc1` had a GHS category in series [2] of 5. This compound also registered an LD50 in series [3] of 12300 mg/kg.

As for `Cc1ccc(S(=O)(=O)O)cc1`, the GHS category in series [2] was found to be 5. The same compound returned an LD50 in series [3] of 400 mg/kg.

Compound `Cc1cncc(C)c1` had an EPA category in series [5] of 2.

Regarding `CC(Cl)(Cl)CC(Cl)(Cl)Cl`, in series [5], the EPA category is on record as 2.

On to `CC(CC(C)(C)C)C[Si](Cl)(Cl)Cl` (centres undefined), for which the nontoxic entry in series [1] is “FALSE (not_nontoxic)”.

Take `N[C@@H](CCC(=O)O)C(=O)O`: the GHS category in series [2] is 5. For the same compound, the LD50 in series [3] came out at 15800 mg/kg.

As for `C=CCOC(=O)C(C)(C)O`, the nontoxic result in series [1] was “FALSE (not_nontoxic)”.

For the compound `CO[Si](C)(CN=C=O)OC`, in series [1], the nontoxic entry is listed as “FALSE (not_nontoxic)”.

For `COC1CCCC1`, the nontoxic entry in series [1] is listed as “FALSE (not_nontoxic)”.

The compound `NC(N)=Nc1ccccc1` yielded an EPA category in series [5] of 3.

In series [2], `O=C1CCCCCN1` returned a GHS category of 4. Also, the LD50 in series [3] stood at 1200 mg/kg.

With `CCC(C)c1cccc(C(C)CC)c1O` (centres undefined), in series [1], the nontoxic entry was “FALSE (not_nontoxic)”.

As to `C[Si](Cl)(Cl)CCCCl`, in series [1], the nontoxic result is on record as “FALSE (not_nontoxic)”.

`O=C1c2cccc(Sc3ccccc3)c2C(=O)c2c(Sc3ccccc3)cccc21` registered an EPA category in series [5] of 3.

As to `CCN(CC)CC`, the GHS category in series [2] is 5. The compound further returned an LD50 in series [3] of 460 mg/kg.

On to `O=CC1=C(Cl)C(=CO)CCC1`, for which the nontoxic result in series [1] is “FALSE (not_nontoxic)”.

As for `NCCNCCNCCNCCN`, the GHS category in series [2] is recorded as 4. In series [3], this compound registered an LD50 of 2100 mg/kg.

As for `CC(C)OC(=O)NP(N)(N)=O`, the nontoxic result in series [1] is recorded as “FALSE (not_nontoxic)”.

Regarding `O=C1c2ccccc2C(=O)N1[C@@H]1CCCNC1`, the nontoxic result in series [1] is “FALSE (not_nontoxic)”.

`CCCCCCCC/C=C\CCCCCCCC(=O)O` showed a GHS category in series [2] of 5. In addition, the LD50 in series [3] is 25000 mg/kg.

As for `Oc1ccccc1`, the GHS category in series [2] was 5. Further, the LD50 in series [3] was determined as 317 mg/kg.

`CCO[SiH](OCC)OCC` returned an EPA category in series [5] of 3.

As for `CCCCCCCCCCCCCCCC[Si](Cl)(Cl)Cl`, the nontoxic entry in series [1] was “FALSE (not_nontoxic)”.

As for `O=[N+]([O-])c1cc(N(CCO)CCO)ccc1NCCO`, in series [5], the EPA category turned out to be 3.

Regarding `C1CCC2=NCCCN2CC1`, the nontoxic entry in series [1] is listed as “FALSE (not_nontoxic)”.

In series [2], `c1ccc2[nH]nnc2c1` gave a GHS category of 4. In series [3], this compound had an LD50 of 500 mg/kg.

With `CCC[C@@H]1C[C@@H](C(=O)N[C@@H]([C@H]2O[C@H](SC)[C@H](O)[C@@H](O)[C@H]2O)[C@@H](C)O)N(C)C1`, the GHS category in series [2] is given as 5. The same compound gave an LD50 in series [3] of 1000 mg/kg.

`CC(=O)O` showed a GHS category in series [2] of 5. This compound returned an LD50 in series [3] of 1940 mg/kg.

Consider `CCOC(=O)CC(=O)C(F)(F)F`, for which the LD50 in series [3] came out at 765 mg/kg.

Consider `Cc1cc(C)c(O)c(C(C)(C)C)c1`, for which the nontoxic result in series [1] is “FALSE (not_nontoxic)”.

In series [3], `CCOP(=O)(NC(C)C)Oc1ccc(SC)c(C)c1` (centres undefined) showed a 50% lethal dose (LD50) of 2.7 mg/kg.

Compound `CCCCOCCOCCOC(OCCOCCOCCCC)c1ccc2c(c1)OCO2` had an LD50 in series [3] of 2940 mg/kg.

What is called LD50 is the dose at which mortality reaches 50%. A low value points to a more toxic substance.
